Data as given in US5153352A, “Process for preparation of intermediates of carbocyclic nucleoside analogs” (priority 1990, dated 1992).
Converted amounts (≈) assume the structure as drawn. “And” between values parts separate entries of the source, which are not always exact repeats. Identical values can stand only once.

Legend:
[1] = cytotoxicity in ATH8 cells (method of Mitsuya and Broder); assay type: cell-based; settings: human
Description: The method of Mitsuya and Broder (AIDS: Modern Concepts and Therapeutic Challenges; Broder, S. ED.; Marcel Dekker, Inc.; New York, 1987; Chapter 18) was used to determine the in vitro anti-HIV-1 and anti-HIV-2 activity in ATH8 cells of some compounds of the invention. […]

[2] = system: Human Immunodeficiency Virus (HIV-2); experiment: anti-HIV-2 protection of ATH8 cells (method of Mitsuya and Broder); assay type: cell-based; settings: ATH-8, HIV-2, ATH8 cells, read-out: Protective Effect
Description: The method of Mitsuya and Broder (AIDS: Modern Concepts and Therapeutic Challenges; Broder, S. ED.; Marcel Dekker, Inc.; New York, 1987; Chapter 18) was used to determine the in vitro anti-HIV-1 and anti-HIV-2 activity in ATH8 cells of some compounds of the invention. The results of the test are expressed as the percentage of ATH8 cells that were protected from the cytopathogenic effects of HIV at various concentrations of the compound of the invention.

[3] = MTT cytotoxicity assay in MRC5 cells; assay type: cell-based; settings: human
Description: (§1) Human diploid embryonic lung (MRC5) cells were grown in 35 mm wells of 6-well tissue culture plates. Subconfluent cell monolayers were rinsed with phosphate buffered saline (PBS) and were exposed to 0.5 ml/well of HCMV (strain AD169) suspension for 1.5 hours at 37° C. The virus suspension was diluted in MEM+2% fetal bovine serum (FBS) to yield a multiplicity of infection (MOI) of approximately 0.1 plaque forming units (PFU)/cell. Following the virus adsorption period, the inocula were removed and infected cell layers were rinsed with PBS. Aliquots (2.0 ml) of each test drug concentration (dissolved in MEM supplemented with 2% FBS) were dispensed into triplicate cell cultures: two virus infected cultures and one uninfected cytotoxicity control culture (exposed to medium without virus for 1.5 hours). Untreated virus infected control cultures and untreated, uninfected cell control cultures were fed with medium alone.
(§2) All cell culture fluids were replaced with fresh drug and medium 48 hours postinfection (p.i.).
Drug cytotoxicity was determined quantitatively by a method based on the reduction of the tetrazolium salt, 3-(4,5-dimethyl-thiazol-2-yl)-2,5-diphenyl tetrazolium bromide (MTT) by mitochondrial enzymes of viable host cells to MTT formazan (T. Mosmann, 1983). Drug cytotoxicity controls and cell controls were treated with MTT (dissolved in culture medium) followed by 20% SDS (in 0.02 N HCl) to dissolve the crystals of MTT formazan. The blue color of the MTT formazan was measured spectrophotometrically at 570 nm. Drug cytotoxicity was determined by comparing the absorbance (O.D.) of each drug cytotoxicity control with the mean O.D. of the cell control cultures and expressed as percent of control.

[4] = system: P388D1: Lymphocytic Leukemia; experiment: cytotoxic activity against cultured tumor cells, P388-D1; assay type: cell-based; settings: Mus musculus, P388D1, 72 h; P388-D1, 3 days, MTT
[5] = system: Human Cytomegalovirus (HCMV); experiment: HCMV virus yield reduction assay in MRC5 cells; assay type: cell-based, Human cytomegalovirus (strain AD169)
Description: as §1, §2
On Day 6 p.i., the cell layers were examined microscopically for cytopathogenic effect (CPE) and drug cytotoxicity. The test and virus control cultures were then harvested by subjecting the cell layers to one cycle of freeze-thawing.
The harvested test and virus control samples were thawed and the infectious virus yield was determined by plaque assay in MRC5 cells grown in 12-well cluster plates. Inhibition of HCMV replication by each test compound was determined by comparing the progeny virus yields in the drug-treated cultures with the progeny virus yield in the untreated, virus infected control cultures.

A549: Lung carcinoma = experiment: cytotoxic activity against cultured tumor cells, A549; assay type: cell-based; settings: Homo sapiens, 72 h; A549, 3 days, MTT
[6] = system: Herpes simplex type 2 (HSV-2) strain MS; experiment: CPE-inhibition assay, HSV-2 strain MS in Vero cells; settings: for EC50: Human alphaherpesvirus 2, Vero, read-out: ID50 (minimum drug concentration that inhibited the CPE by 50%), HSV-2 (MS), Vero
[7] = cytotoxicity in uninfected PHA-stimulated human PBM cells; assay type: cell-based; settings: uninfected PBMC, 6 days, read-out: Cytotoxicity in PBMC IC50
Description: Human peripheral blood mononuclear cells (PBMC) from healthy HIV-1 seronegative and hepatitis B virus seroneqative donors were isolated by Ficoll-Hypague discontinuous gradient centrifugation at 1,000×g for 30 minutes, washed twice in phosphate buffered saline (pH 7.2; PBS), and pelleted at 300×g for 10 minutes. Before infection, the cells were stimulated by phytohemagglutinin (PHA) at a concentration of 16.7 ug/ml for three days in RPMI 1640 medium supplemented with 15% heat-inactivated fetal calf serum, 1.5 mM L-glutamine, penicillin (100 U/ml), streptomycin (100 ug/ml) and 4 mM sodium bicarbonate buffer.
The test compounds were evaluated for their potential toxic effects on uninfected PHA-stimulated human PBM cells. The cells were cultured with and without test compound for 6 days at which time aliquots were counted for cell viability.

[8] = system: Human Immunodificiency Virus (HIV-1); experiment: HIV-1 antigen inhibition in H9 cells; assay type: cell-based, HIV-1 (HTLV-IIIB); settings: Human immunodeficiency virus 1, HIV-1, H9 cells; for IC50: HIV antigen levels
Description: Uninfected H9 cells at 4×10^5 viable cells/ml were infected with approximately 100 viral infectious units (ifu) for 2 hrs at 37° C. The viral infectious dose (ifu) was determined by the tissue culture infectious dose (TCID50) method for each stock of HIV-1 (HTLV-IIIB) and HIV-2. Cells were washed three times to remove residual virus, then resuspended in RPMI-1640 growth medium containing test compound at various concentrations, then transferred to 24 well tissue culture plates and grown at 5% CO2 at 37° C. Infected cells in media containing no drug were run simultaneously as a control. Aliquots of culture supernatants were removed at 4, 6 and 10 days and monitored for HIV antigen levels by the Abbott HIV 1 antigen enzyme immunoassay (HIVAG-1). Cell viability was also determined at these time points and cells were refed with media containing test compound (except for control wells). Anti-HIV activity is reported as the concentration of compound causing a 50% inhibition (IC50) in HIV antigen levels versus infected cells without test compound.

[9] = system: Herpes simplex type 1 (HSV-1) strain E-377; experiment: CPE-inhibition assay, HSV-1 strain E-377 in Vero cells
[10] = Human betaherpesvirus 5, 144 h, 1.0 ug/ml
[11] = Human betaherpesvirus 5, 144 h, 3.2 ug/ml
[12] = Human betaherpesvirus 5, 144 h, 10 ug/ml
[13] = Human betaherpesvirus 5, 144 h, 32 ug/ml

SMILES	cytotoxicity at 1 µM ([1]; HIV-1 experiment) [%]	cytotoxicity at 10 µM ([1]; HIV-1 experiment) [%]	cytotoxicity at 1 µM ([1]; HIV-2 experiment) [%]	cytotoxicity at 10 µM ([1]; HIV-2 experiment) [%]	inhibition at 1 µM [2] [%]	inhibition at 10 µM [2] [%]	viability ([3]; 3.2 ug/ml) [%]	viability ([3]; 10 ug/ml) [%]	viability ([3]; 32 ug/ml) [%]	IC50 [4] [µg/mL]	HCMV yield ([5]; 1.0 ug/ml) [log10 PFU/ml]	HCMV yield ([5]; 3.2 ug/ml) [log10 PFU/ml]	HCMV yield ([5]; 10 ug/ml) [log10 PFU/ml]	HCMV yield ([5]; 32 ug/ml) [log10 PFU/ml]	log reduction at 1 µg/mL [5, 10]	log reduction at 3.2 µg/mL [5, 11]	log reduction at 10 µg/mL [5, 12]	log reduction at 32 µg/mL [5, 13]	IC50 (A549: Lung carcinoma) [µg/mL]	EC50 [6] [µg/mL]	further results
Nc1nc2c(ncn2C2CC(CO)C2CO)c(=O)[nH]1 (centres unmarked) [Example 1I, 9-(2',3'-Bis(hydroxymethyl)cyclobutyl)guanine]	0	0	11	11	24	65	100	100	100	2.8 (≈ 10.6 µM)	3.12	2.43	1.63	< 0.6	1.15	1.84	2.64	> 3.7	94.6 (≈ 357 µM)	6.4 (≈ 24.1 µM)	viability ([3]; 1.0 ug/ml): 100%; TI (Therapeutic Index, MTC/ID50) ([6]; HSV-2 (MS), Vero): 50 and 30; CC50 at 144 h [7]: 38.8 µM; inhibition at 0.312 µM ([8]; 0.312 uM): 0%; inhibition at 0.625 µM [8]: 19%; inhibition at 1.25 µM ([8]; 1.25 uM): 63%; inhibition at 2.5 µM [8]: 75%; inhibition at 10 µM [8]: 88%; IC50 [8]: 1.1 µM; TI (Therapeutic Index, MTC/ID50) ([9]; HSV-1 (E-377), Vero): 213 and 129; EC50 ([9]; Human alphaherpesvirus 1, Vero, read-out: ID50 (minimum drug concentration that inhibited the CPE by 50%), HSV-1 (E-377), Vero): 1.5 µg/mL (≈ 5.65 µM)
Nc1ncnc2c1ncn2C1CC(CO)C1CO (centres unmarked) [Example 4C, 9-(2',3'-Bis(hydroxymethyl)cyclobutyl)adenine]	12	33	9	15	33	70	95	90	67	0.64 (≈ 2.57 µM)	2.6	< 0.6	< 0.6	< 0.6	2.1	> 4.1	> 4.1	> 4.1	49.1 (≈ 197 µM)	18.1 (≈ 72.6 µM)	cytotoxicity at 100 µM ([1]; HIV-1 experiment, 100 uM): 34%; HCMV yield ([5]; 0.32 ug/ml): 3.3 log10 PFU/ml; log reduction at 0.32 µg/mL ([5]; Human betaherpesvirus 5, 144 h, 0.32 ug/ml): 1.4; CC50 at 144 h [7]: 23 µM; inhibition at 0.625 µM [8]: 0%; inhibition at 2.5 µM [8]: 62%; inhibition at 5 µM ([8]; 5 uM): 96%; inhibition at 10 µM [8]: 98%; IC50 [8]: 2.1 µM; TI (Therapeutic Index, MTC/ID50) ([9]; HSV-1 (E-377), Vero): 3.7 and > 2.2; VR (Virus Rating) ([9]; HSV-1 (E-377), Vero, >1.0 definite, 0.5-0.9 marginal to moderate, <0.5 no significant activity): 2.1
